Source: patent US10829458B2 (Araxes Pharma LLC, priority 2015, dated 2020)

Columns and labels:
[1] = molecular target: T1, KRAS G12C 1-169, his-tagged protein, GDP-loaded (Homo sapiens, UniProt P01116, G12C); assay: Biochemical assay: covalent modification of KRAS G12C measured by mass spectrometry (RapidFire/TOF or Q-Exactive); conditions: covalent binding to KRAS G12C
T1 construct: KRAS G12C 1-169, his-tagged protein, GDP-loaded
How it was run: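 Covalent adduct formation read by intact-mass spectrometry (TOF or Q Exactive Plus, charge envelopes deconvoluted into modified and unmodified species) after formic acid quench. Reactions contained 2 μM GDP-bound KRAS G12C 1-169 (his-tag) in Hepes/NaCl/MgCl2 buffer plus 10, 30 or 100 μM final compound, held 30 min, 2 h or 24 h at room temperature.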

Whole blood stability = type: in vitro ADME; conditions: 37° C., time points 0, 1, 2, 4 hr, LC/MS/MS; for half-life at 5 µM: mouse, whole blood, read-out: Whole Blood Stability (T1/2) hr. Mouse (converted)
Method: Test compounds were prepared as a 500 μM stock solution in DMSO (Adding 10 μl of 10 mM DMSO stock solution to 190 μl of 100% DMSO). Whole blood was thawed on ice. A whole blood plate was prepared by adding 460 μl of the whole blood (different species as needed) to a 96-well in ml deep well plate. The whole blood plate was preincubated at 37° C. for 10 min. 4 μl of compound solution and 396 μl of whole blood was added to the plate and mixed thoroughly. Each sample was aliquoted (30 μl) to the incubation plate (cluster tubes) and quenched at time zero with ice-cold 100% ACN, and the incubation plates were added to the 37° C. incubator (200 μl).
The time zero sample was maintained at 4° C. until centrifuged. All other samples were quench at different time points (1, 2, 4 hr), vortexed for 30 seconds and centrifuged at 3500 rpm for 15 min at 4° C. 30 μl of supernatant was added to 170 μl 0.1% FA aqueous solution and the sample was analyzes by LC/MS/MS.

half-life at 5 µM (Whole blood stability) [h]	SMILES	Binding % ([1]; compounds of structure (III))	Binding % ([1]; compounds of structure (I))	further results
	C=CC(=O)N1CCN(c2ncnc3c(F)c(-c4c(O)cccc4F)c(Cl)cc23)[C@@H](C)C1 [III-14, 1-((3S)-4-(6-chloro-8-fluoro-7-(2-fluoro-6-hydroxy-phenyl)quinazolin-4-yl)-3-methyl-piperazin-1-yl)prop-2-en-1-one]	++ (++ indicates activity from 50% to 90%)		Whole Blood Stability (T1/2) hr. Mouse (Whole blood stability): 6.2 h
3.99	C=CC(=O)N1CCN(c2ncnc3c(F)c(-c4c(O)cccc4F)c(Cl)cc23)CC1 (atropisomer, axis not shown) [A, reference compound]			
8.8	C=CC(=O)N1[C@@H](C)CN(c2ncnc3c(F)c(-c4c(O)cccc4F)c(Cl)cc23)C[C@@H]1C [III-18, 1-((2S,6S)-4-(6-chloro-8-fluoro-7-(2-fluoro-6-hydroxy-phenyl)quinazolin-4-yl)-2,6-dimethyl-piperazin-1-yl)prop-2-en-1-one]	+ (+ indicates binding activity up to 50%)		
> 12	C=CC(=O)N1CCN(c2ncnc3c(F)c(-c4c(O)cccc4F)c(Cl)cc23)C[C@H]1C [III-21, 1-((2R)-4-(6-chloro-8-fluoro-7-(2-fluoro-6-hydroxy-phenyl)quinazolin-4-yl)-2-methyl-piperazin-1-yl)prop-2-en-1-one]	++ (++ indicates activity from 50% to 90%)		
> 12	C=CC(=O)N1[C@H](C)CN(c2ncnc3c(F)c(-c4c(O)cccc4F)c(Cl)cc23)C[C@H]1C [III-22, 1-((2R,6R)-4-(6-chloro-8-fluoro-7-(2-fluoro-6-hydroxy-phenyl)quinazolin-4-yl)-2,6-dimethyl-piperazin-1-yl)prop-2-en-1-one]	+ (+ indicates binding activity up to 50%)		
	C=CC(=O)N1CCN(c2ncnc3c(F)c(-c4c(O)cccc4F)c(Cl)cc23)[C@@H](C)C1 (atropisomer, axis not shown) [III-24, 1-((S)-4-((S)-6-chloro-8-fluoro-7-(2-fluoro-6-hydroxy-phenyl)quinazolin-4-yl)-3-methyl-piperazin-1-yl)prop-2-en-1-one]	+++ (+++ indicates binding activity greater than 90%)		Whole Blood Stability (T1/2) hr. Mouse (Whole blood stability): 10.4 h
> 12	C=CC(=O)N1CCN(c2ncnc3c(F)c(-c4c(O)cccc4F)c(Cl)cc23)[C@@H](C)C1 (atropisomer, axis not shown) [III-23, 1-((S)-4-((R)-6-chloro-8-fluoro-7-(2-fluoro-6-hydroxy-phenyl)quinazolin-4-yl)-3-methyl-piperazin-1-yl)prop-2-en-1-one]	+ (+ indicates binding activity up to 50%)		
12.5	C=CC(=O)N1CCN(c2ncnc3c(F)c(-c4c(O)cccc4F)c(Cl)cc23)C(C)(C)C1 [III-17, 1-(4-(6-chloro-8-fluoro-7-(2-fluoro-6-hydroxy-phenyl)quinazolin-4-yl)-3,3-dimethyl-piperazin-1-yl)prop-2-en-1-one]	++ (++ indicates activity from 50% to 90%)		
10.6	C=CC(=O)N1CCN(c2ncnc3c(F)c(-c4c(O)cccc4F)c(Cl)cc23)C[C@@H]1C [III-20, 1-((2S)-4-(6-chloro-8-fluoro-7-(2-fluoro-6-hydroxy-phenyl)quinazolin-4-yl)-2-methyl-piperazin-1-yl)prop-2-en-1-one]	++ (++ indicates activity from 50% to 90%)		
	C=CC(=O)N1CCN(c2nc(NCCN3CC(F)(F)C3)nc3c(F)c(-c4c(O)cccc4F)c(Cl)cc23)CC1 [Example I-143, 1-(4-(6-chloro-2-(2-(3,3-difluoro-azetidin-1-yl)ethylamino)-8-fluoro-7-(2-fluoro-6-hydroxyphenyl)quinazolin-4-yl)piperazin-1-yl) prop-2-en-1-one]		+++ (+++ indicates binding activity greater than 90%)	
	C=CC(=O)N1CCN(c2nc(COCc3ncccc3F)nc3c(F)c(-c4c(O)cccc4F)c(Cl)cc23)CC1 [Example I-210, 1-(4-(6-chloro-8-fluoro-7-(2-fluoro-6-hydroxyphenyl)-2-(((3-fluoro-pyridin-2-yl)methoxy)methyl)quinazolin-4-yl)piperazin-1-yl) prop-2-en-1-one]		+++ (+++ indicates binding activity greater than 90%)	
	C=CC(=O)N1CCN(c2ncnc3c(F)c(-c4c(O)cccc4F)c(Cl)cc23)CC12CC2 [III-10, 1-(7-(6-chloro-8-fluoro-7-(2-fluoro-6-hydroxy-phenyl)quinazolin-4-yl)-4,7-diazaspiro [2.5]octan-4-yl)prop-2-en-1-one]	+ (+ indicates binding activity up to 50%)		
	C=CC(=O)N1CCN(c2nc(OCCN3CCC(F)(F)C3)nc3c(F)c(-c4c(O)cccc4F)c(Cl)cc23)CC1 (atropisomer, axis not shown) [Example I-98, (R)-1-(4-(6-chloro-2-(2-(3,3-difluoro-pyrrolidin-1-yl)ethoxy)-8-fluoro-7-(2-fluoro-6-hydroxyphenyl)quinazolin-4-yl)piperazin-1-yl) prop-2-en-1-one]		+ (+ indicates binding activity up to 50%)	
	CN(C)C/C=C/C(=O)N1CCN(c2nc(OCCN3CCOCC3)nc3c(F)c(-c4c(O)cccc4F)c(Cl)cc23)CC1 [Example I-74, (E)-1-(4-(6-chloro-8-fluoro-7-(2-fluoro-6-hydroxyphenyl)-2-(2-morpholino-ethoxy)quinazolin-4-yl)piperazin-1-yl)-4-(dimethyl-amino)but-2-en-1-one]		+++ (+++ indicates binding activity greater than 90%)	
	C=CC(=O)N1CCN(c2nc(NC3CCN(C(C)(C)C)CC3)nc3c(F)c(-c4c(C)ccc5[nH]ncc45)c(Cl)cc23)CC1 [Example I-177, 1-(4-(2-((1-(tert-butyl)piperidin-4-yl)amino)-6-chloro-8-fluoro-7-(5-methyl-1H-indazol-4-yl)quinazolin-4-yl)piperazin-1-yl) prop-2-en-1-one]		+++ (+++ indicates binding activity greater than 90%)	
	C=CC(=O)N1CCN(c2nc(OCCc3ncccn3)nc3c(F)c(-c4c(C)ccc5[nH]ncc45)c(Cl)cc23)CC1 [Example I-139, 1-(4-(6-chloro-8-fluoro-7-(5-methyl-1H-indazol-4-yl)-2-(2-(pyrimidin-2-yl)ethoxy)quinazolin-4-yl)piperazin-1-yl) prop-2-en-1-one]		+++ (+++ indicates binding activity greater than 90%)	
	C=CC(=O)N1CCN(c2nc(NC3CN(C(C)C)C3)nc3c(F)c(-c4c(C)ccc5[nH]ncc45)c(Cl)cc23)CC1 [Example I-173, 1-(4-(6-chloro-8-fluoro-2-((1-isopropyl-azetidin-3-yl)amino)-7-(5-methyl-1H-indazol-4-yl)quinazolin-4-yl)piperazin-1-yl) prop-2-en-1-one]		+ (+ indicates binding activity up to 50%)	
	C=CC(=O)N1CCN(c2nc(NC3CCCN(C4CC4)C3)nc3c(F)c(-c4c(O)cccc4F)c(Cl)cc23)CC1 (stereo not drawn) [Example I-120, 1-(4-(6-chloro-2-(1-cyclopropyl-piperidin-3-ylamino)-8-fluoro-7-(2-fluoro-6-hydroxyphenyl)quinazolin-4-yl)piperazin-1-yl) prop-2-en-1-one]		++ (++ indicates binding activity from 50 to 90%)	
	C=C(F)C(=O)N1CCN(c2nc(OCCN3CCOCC3)nc3c(F)c(-c4c(O)cccc4F)c(Cl)cc23)CC1 [Example I-60, 1-(4-(6-chloro-8-fluoro-7-(2-fluoro-6-hydroxyphenyl)-2-(2-morpholino-ethoxy)quinazolin-4-yl)piperazin-1-yl)-2-fluoroprop-2-en-1-one]		++ (++ indicates binding activity from 50 to 90%)	
	C=CC(=O)N1C[C@@H](C)N(c2ncnc3c(F)c(-c4c(O)cccc4F)c(Cl)cc23)[C@@H](C)C1 [III-28, 1-((3R,5S)-4-(6-chloro-8-fluoro-7-(2-fluoro-6-hydroxy-phenyl)quinazolin-4-yl)-3,5-dimethyl-piperazin-1-yl)prop-2-en-1-one]	+++ (+++ indicates binding activity greater than 90%)		
	C=CC(=O)N1CCN(c2nc(OCc3cnc(OC)nc3)nc3c(F)c(-c4c(O)cccc4F)c(Cl)cc23)CC1 [Example I-118, 1-(4-(6-chloro-8-fluoro-7-(2-fluoro-6-hydroxyphenyl)-2-((2-methoxy-pyrimidin-5-yl)methoxy)quinazolin-4-yl)piperazin-1-yl) prop-2-en-1-one]		+++ (+++ indicates binding activity greater than 90%)	
	C=CC(=O)N1CCN(c2nc(N3CC(N(C)C)C3)nc3c(F)c(-c4cc(O)cc5ccccc45)c(Cl)cc23)CC1 [Example I-106, 1-(4-(6-chloro-2-(3-(dimethyl-amino)azetidin-1-yl)-8-fluoro-7-(3-hydroxy-naphthalen-1-yl)quinazolin-4-yl)piperazin-1-yl) prop-2-en-1-one]		+++ (+++ indicates binding activity greater than 90%)	
